This assay relates to HEK293T cells carrying the ATF4 luciferase reporter. In words: ATF4-Luc assay, in vitro model of Vanishing Cell White Matter Disease (VWMD). The settings on record: Homo sapiens, HEK-293T, 1 μg/mL tunicamycin, 7 hours, One Glo luminescence. Format: cell-based. In a few lines: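 Compound at 200 nM and tunicamycin at 1 μg/mL were given together for 7 h to HEK293T cells stably transduced with an ATF4 5′-UTR-driven firefly luciferase reporter. Read-out by luminescence, reported as EC50.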
As to `Cn1nc(C(=O)NC23CCC(NC(=O)COc4ccc(Cl)c(F)c4)(CC2)C(O)C3)cc1C(F)(F)F` (stereo not shown) [Compound 565, N-{4-[2-(4-chloro-3-fluorophenoxy)acetamido]-3-hydroxybicyclo[2.2.2]octan-1-yl}-1-methyl-5-(trifluoromethyl)-1H-pyrazole-3-carboxamide], the concentration for a half-maximal effect (EC50) (usually the concentration needed to bring the measured effect to its halfway point) lay in the range of 50 to 250 nM.

With `O=C(COc1ccc(Cl)c(F)c1)NC12CCC(NC(=O)c3coc(C(F)(F)F)c3)(CC1)CC2O` (stereo not shown) [Compound 566, N-{4-[2-(4-chloro-3-fluorophenoxy)acetamido]-3-hydroxybicyclo[2.2.2]octan-1-yl}-5-(trifluoromethyl)furan-3-carboxamide], the EC50 is less than 50 nM.

For `CCc1noc(C(=O)NC23CCC(NC(=O)COc4ccc(Cl)c(F)c4)(CC2)C(O)C3)n1` (stereo not shown) [Compound 567, N-{4-[2-(4-chloro-3-fluorophenoxy)acetamido]-3-hydroxybicyclo[2.2.2]octan-1-yl}-3-ethyl-1,2,4-oxadiazole-5-carboxamide], the EC50 was 50 to 250 nM.

Regarding `COCc1cncc(C(=O)NC23CC(NC(=O)COc4ccc(Cl)c(F)c4)(C2)C3)c1` [Compound 568, N-{3-[2-(4-chloro-3-fluorophenoxy)acetamido]bicyclo[1.1.1]pentan-1-yl}-5-(methoxymethyl)pyridine-3-carboxamide], the EC50 is 50 to 250 nM.

Take `COCc1cncc(C(=O)NC23CC(NC(=O)COc4ccc(Cl)c(Cl)c4)(C2)C3)c1` [Compound 569, N-{3-[2-(3,4-dichlorophenoxy)acetamido]bicyclo[1.1.1]pentan-1-yl}-5-(methoxymethyl)pyridine-3-carboxamide]: the concentration for a half-maximal effect (EC50) was less than 50 nM.

As for `O=C(COc1ccc(Cl)cc1)NC12CC(NC(=O)c3ccc(OC(F)(F)F)nc3)(C1)C2` [Compound 570, N-{3-[2-(4-chlorophenoxy)acetamido]bicyclo[1.1.1]pentan-1-yl}-6-(trifluoromethoxy)pyridine-3-carboxamide], the EC50 was in the range of 50 to 250 nM.

Regarding `CCc1cc(C(=O)NC23CCC(NC(=O)COc4ccc(Cl)c(F)c4)(C2)C3)n(C)n1` [Compound 571, N-{4-[2-(4-chloro-3-fluorophenoxy)acetamido]bicyclo[2.1.1]hexan-1-yl}-3-ethyl-1-methyl-1H-pyrazole-5-carboxamide], the concentration for a half-maximal effect (EC50) was in the range of 250 to 1000 nM.

Take `Cc1nc(C(=O)NC23CCC(NC(=O)COc4ccc(Cl)c(F)c4)(CC2)[C@@H](O)C3)cs1` [Compound 572, N-{(3S)-4-[2-(4-chloro-3-fluorophenoxy)acetamido]-3-hydroxybicyclo[2.2.2]octan-1-yl}-2-methyl-1,3-thiazole-4-carboxamide]: the EC50 lay within 50 to 250 nM.

Regarding `O=C(COc1ccc(Cl)c(F)c1)NC12CC(NC(=O)c3cnco3)(C1)C2` [Compound 573, N-{3-[2-(4-chloro-3-fluorophenoxy)acetamido]bicyclo[1.1.1]pentan-1-yl}-1,3-oxazole-5-carboxamide], the EC50 was 1000 to 2000 nM.

As to `O=C(COc1ccc(Cl)c(F)c1)NC12CCC(NC(=O)c3ccc(OC(F)F)nc3)(C1)C2` [Compound 574, N-{4-[2-(4-chloro-3-fluorophenoxy)acetamido]bicyclo[2.1.1]hexan-1-yl}-6-(difluoromethoxy)pyridine-3-carboxamide], the concentration giving a half-maximal response (EC50) fell in the range of 50 to 250 nM.

Consider `Cc1noc(C(=O)NC23CCC(NC(=O)COc4ccc(Cl)c(F)c4)(CC2)[C@@H](O)C3)n1` [Compound 575, N-{(3S)-4-[2-(4-chloro-3-fluorophenoxy)acetamido]-3-hydroxybicyclo[2.2.2]octan-1-yl}-3-methyl-1,2,4-oxadiazole-5-carboxamide], for which the EC50 was less than 50 nM.

For `COc1cc(C(=O)NC23CCC(NC(=O)COc4ccc(Cl)c(F)c4)(CC2)C(O)C3)on1` (stereo not shown) [Compound 576, N-{4-[2-(4-chloro-3-fluorophenoxy)acetamido]-3-hydroxybicyclo[2.2.2]octan-1-yl}-3-methoxy-1,2-oxazole-5-carboxamide], the concentration giving a half-maximal response (EC50) lay in the range of 50 to 250 nM.

Consider `CC(C)c1cc(C(=O)NC23CCC(NC(=O)COc4ccc(Cl)c(F)c4)(CC2)C(O)C3)on1` (stereo not shown) [Compound 577, N-{4-[2-(4-chloro-3-fluorophenoxy)acetamido]-3-hydroxybicyclo[2.2.2]octan-1-yl}-3-(propan-2-yl)-1,2-oxazole-5-carboxamide], for which the EC50 fell in the range of 50 to 250 nM.

As for `Cc1cc(C(=O)NC23CCC(NC(=O)COc4ccc(Cl)c(F)c4)(CC2)C(O)C3)sn1` (stereo not shown) [Compound 578, N-{4-[2-(4-chloro-3-fluorophenoxy)acetamido]-3-hydroxybicyclo[2.2.2]octan-1-yl}-3-methyl-1,2-thiazole-5-carboxamide], the 50% effective concentration (EC50) was less than 50 nM.

Take `O=C(COc1ccc(Cl)c(F)c1)NC12CCC(NC(=O)c3ccc(OCC(F)(F)F)nc3)(CC1)CC2O` (stereo not shown) [Compound 579, N-{4-[2-(4-chloro-3-fluorophenoxy)acetamido]-3-hydroxybicyclo[2.2.2]octan-1-yl}-6-(2,2,2-trifluoroethoxy)pyridine-3-carboxamide]: the concentration giving a half-maximal response (EC50) was 50 to 250 nM.

With `CC(C)(C)OC(=O)NCc1ccnc(C(=O)NC23CC(NC(=O)COc4ccc(Cl)c(Cl)c4)(C2)C3)c1` [Compound 580, tert-butyl {[2-({3-[2-(3,4-dichlorophenoxy)acetamido]bicyclo[1.1.1]pentan-1-yl}carbamoyl)pyridin-4-yl]methyl}carbamate], the concentration for a half-maximal effect (EC50) is greater than 2000 nM.

As to `CC(C)(C)c1cc(C(=O)NC23CCC(NC(=O)COc4ccc(Cl)c(F)c4)(CC2)[C@@H](O)C3)on1` [Compound 581, 3-tert-butyl-N-{(3S)-4-[2-(4-chloro-3-fluorophenoxy)acetamido]-3-hydroxybicyclo[2.2.2]octan-1-yl}-1,2-oxazole-5-carboxamide], the 50% effective concentration (EC50) was less than 50 nM.

Turning to `Cn1nc(C(F)(F)F)cc1C(=O)NC12CC(NC(=O)COc3ccc(Cl)c(F)c3)(C1)C2` [Compound 582, N-{3-[2-(4-chloro-3-fluorophenoxy)acetamido]bicyclo[1.1.1]pentan-1-yl}-1-methyl-3-(trifluoromethyl)-1H-pyrazole-5-carboxamide], the concentration for a half-maximal effect (EC50) lay within 50 to 250 nM.

For the compound `O=C(COc1ccc(Cl)c(F)c1)NC12CC(NC(=O)c3cnc(C4CC4)o3)(C1)C2` [Compound 583, N-{3-[2-(4-chloro-3-fluorophenoxy)acetamido]bicyclo[1.1.1]pentan-1-yl}-2-cyclopropyl-1,3-oxazole-5-carboxamide], the half-maximal effective concentration (EC50) fell in the range of 50 to 250 nM.

`CCc1cc(C(=O)NC23CC(NC(=O)COc4ccc(Cl)c(Cl)c4)(C2)C3)n(C)n1` [Compound 584, N-{3-[2-(3,4-dichlorophenoxy)acetamido]bicyclo[1.1.1]pentan-1-yl}-3-ethyl-1-methyl-1H-pyrazole-5-carboxamide]: the EC50 was less than 50 nM.

Consider `Cc1ncc(C(=O)NC23CC(NC(=O)COc4ccc(Cl)c(Cl)c4)(C2)C3)s1` [Compound 585, N-{3-[2-(3,4-dichlorophenoxy)acetamido]bicyclo[1.1.1]pentan-1-yl}-2-methyl-1,3-thiazole-5-carboxamide], for which the EC50 is 50 to 250 nM.

`O=C(COc1ccc(Cl)c(F)c1)NC12CC(NC(=O)c3ccc4ccccc4n3)(C1)C2` [Compound 586, N-{3-[2-(4-chloro-3-fluorophenoxy)acetamido]bicyclo[1.1.1]pentan-1-yl}quinoline-2-carboxamide]: the half-maximal effective concentration (EC50) is less than 50 nM.

In the case of `O=C(COc1ccc(Cl)c(F)c1)NC12CC(NC(=O)c3cnc4ccccc4c3)(C1)C2` [Compound 587, N-{3-[2-(4-chloro-3-fluorophenoxy)acetamido]bicyclo[1.1.1]pentan-1-yl}quinoline-3-carboxamide], the EC50 lay in the range of 50 to 250 nM.

With `O=C(COc1ccc(Cl)c(F)c1)NC12CCC(NC(=O)c3ccccn3)(CC1)[C@@H](O)C2` [Compound 588, N-{(2S)-4-[2-(4-chloro-3-fluorophenoxy)acetamido]-2-hydroxybicyclo[2.2.2]octan-1-yl}pyridine-2-carboxamide], the EC50 is less than 50 nM.

Turning to `Cc1ccc(C(=O)NC23CCC(NC(=O)COc4ccc(Cl)c(F)c4)(CC2)C[C@@H]3O)nc1` [Compound 589, N-{(2S)-4-[2-(4-chloro-3-fluorophenoxy)acetamido]-2-hydroxybicyclo[2.2.2]octan-1-yl}-5-methylpyridine-2-carboxamide], the EC50 is 50 to 250 nM.

Take `O=C(COc1ccc(Cl)c(F)c1)NC12CC(NC(=O)c3nc(C4CC4)cs3)(C1)C2` [Compound 590, N-{3-[2-(4-chloro-3-fluorophenoxy)acetamido]bicyclo[1.1.1]pentan-1-yl}-4-cyclopropyl-1,3-thiazole-2-carboxamide]: the EC50 was 50 to 250 nM.

As for `O=C(COc1ccc(Cl)c(F)c1)NC12CCC(NC(=O)c3ccsc3)(CC1)CC2O` (stereo not shown) [Compound 591, N-{4-[2-(4-chloro-3-fluorophenoxy)acetamido]-3-hydroxybicyclo[2.2.2]octan-1-yl}thiophene-3-carboxamide], the half-maximal effective concentration (EC50) lay within 50 to 250 nM.

As to `O=C(COc1ccc(Cl)c(F)c1)NC12CCC(NC(=O)c3cscn3)(CC1)CC2O` (stereo not shown) [Compound 592, N-{4-[2-(4-chloro-3-fluorophenoxy)acetamido]-3-hydroxybicyclo[2.2.2]octan-1-yl}-1,3-thiazole-4-carboxamide], the EC50 is 50 to 250 nM.

As to `O=C(COc1ccc(Cl)c(F)c1)NC12CCC(NC(=O)c3cncs3)(CC1)CC2O` (stereo not shown) [Compound 593, N-{4-[2-(4-chloro-3-fluorophenoxy)acetamido]-3-hydroxybicyclo[2.2.2]octan-1-yl}-1,3-thiazole-5-carboxamide], the EC50 is 50 to 250 nM.

As for `O=C(COc1ccc(Cl)c(F)c1)NC12CCC(NC(=O)c3cc4ccccn4n3)(CC1)CC2O` (stereo not shown) [Compound 594, N-{4-[2-(4-chloro-3-fluorophenoxy)acetamido]-3-hydroxybicyclo[2.2.2]octan-1-yl}pyrazolo[1,5-a]pyridine-2-carboxamide], the EC50 was in the range of 50 to 250 nM.

Turning to `O=C(COc1ccc(Cl)c(F)c1)NC12CCC(NC(=O)c3cnc4ccccn34)(CC1)CC2O` (stereo not shown) [Compound 595, N-{4-[2-(4-chloro-3-fluorophenoxy)acetamido]-3-hydroxybicyclo[2.2.2]octan-1-yl}imidazo[1,2-a]pyridine-3-carboxamide], the EC50 was 1000 to 2000 nM.

The values above are taken from patent US10913727B2, “Modulators of the integrated stress pathway” (Calico Life Sciences LLC, priority 2016, dated 2021).
